From patent publication US11708348B2, “Protease inhibitors for treatment of coronavirus infections” (The Scripps Research Institute, priority 2021, dated 2023) come the findings set out here.

One assay relates to SARS-CoV-2 strain USA-WA1/2020. The experiment in a line: microbe, parasite or virus in culture. Particulars: Severe acute respiratory syndrome coronavirus 2, HeLa-ACE2, 24 h, HeLa-ACE2 cells, SARS-CoV-2 infection, 24 h; cells given as a bound; read-out: EC50, uM (Hela). The format is cell-based.
With `CC(C)C[C@H](NC(=O)C(=O)Nc1ccccc1)C(=O)N[C@@H](C[C@@H]1CCNC1=O)C(O)COc1c(F)c(F)cc(F)c1F` (stereo partly drawn) [Compound 49, N1-((2S)-1-(((2S)-3-hydroxy-1-((S)-2-oxopyrrolidin-3-yl)-4-(2,3,5,6-tetrafluorophenoxy)butan-2-yl)amino)-4-methyl-1-oxopentan-2-yl)-N2-phenyloxalamide], the EC50 – broadly, the concentration needed to bring the measured effect to its halfway point – was > 1 µM.

The assay is the same for the next values; noted with them: Severe acute respiratory syndrome coronavirus 2, HeLa-ACE2, 24 h, HeLa-ACE2 cells, SARS-CoV-2 infection, 24 h; class symbols; read-out: EC50, uM (Hela).
`CC(C)C[C@H](NC(=O)OCc1ccc(F)cc1)C(=O)N[C@@H](C[C@@H]1CCNC1=O)C(=O)COc1c(F)c(F)cc(F)c1F` [Compound 23, 4-fluorobenzyl ((S)-4-methyl-1-oxo-1-(((S)-3-oxo-1-((S)-2-oxopyrrolidin-3-yl)-4-(2,3,5,6-tetra-fluorophenoxy)butan-2-yl)amino)pentan-2-yl)carbamate]: the EC50 is 0.2 to 0.5 µM.

Regarding `CC(C)C[C@H](NC(=O)C(=O)Nc1ccc(Cl)cc1)C(=O)N[C@@H](C[C@@H]1CCNC1=O)C(=O)COc1c(F)c(F)cc(F)c1F` [Compound 39, N1-(4-chlorophenyl)-N2-((S)-4-methyl-1-oxo-1-(((S)-3-oxo-1-((S)-2-oxopyrrolidin-3-yl)-4-(2,3,5,6-tetrafluorophenoxy)butan-2-yl)amino)pentan-2-yl)oxalamide], the EC50 lay in the range of 0.05 to 0.2 µM.

Take `CC(C)C[C@H](NC(=O)C(=O)Nc1ccc(F)c(F)c1)C(=O)N[C@@H](C[C@@H]1CCNC1=O)C(=O)COc1c(F)c(F)cc(F)c1F` [Compound 53, N1-(3,4-difluorophenyl)-N2-((S)-4-methyl-1-oxo-1-(((S)-3-oxo-1-((S)-2-oxopyrrolidin-3-yl)-4-(2,3,5,6-tetrafluorophenoxy)butan-2-yl)amino)pentan-2-yl)oxalamide]: the half-maximal effective concentration (EC50) fell in the range of 0.05 to 0.2 µM.

Turning to `CC(C)(F)c1cc(C(=O)N2C[C@H]3[C@@H]([C@H]2C(=O)N[C@@H](C[C@@H]2CCNC2=O)C(=O)COc2c(F)c(F)cc(F)c2F)C3(C)C)no1` [Compound 284, (1R,2S,5S)-3-(5-(2-fluoropropan-2-yl)isoxazole-3-carbonyl)-6,6-dimethyl-N-((S)-3-oxo-1-((S)-2-oxopyrrolidin-3-yl)-4-(2,3,5,6-tetrafluorophenoxy)butan-2-yl)-3-azabicyclo-[3.1.0]hexane-2-carboxamide], the EC50 fell in the range of 0.2 to 0.5 µM.

In the case of `CC1(C)[C@@H]2[C@@H](C(=O)N[C@@H](C[C@@H]3CCNC3=O)C(=O)COC(F)(F)F)N(C(=O)C34CC(C(F)(F)F)(CO3)C4)C[C@@H]21` [Compound 318, (1R,2S,5S)-6,6-dimethyl-N-((S)-3-oxo-1-((S)-2-oxopyrrolidin-3-yl)-4-(trifluoromethoxy)butan-2-yl)-3-(4-(trifluoromethyl)-2-oxabicyclo[2.1.1]-hexane-1-carbonyl)-3-azabicyclo[3.1.0]-hexane-2-carboxamide], the EC50 was 0.05 to 0.2 µM.

For the molecule `O=C1NCC[C@H]1C[C@H](NC(=O)[C@@H]1[C@H]2CCC[C@H]2CN1C(=O)C12CC(C(F)F)(CO1)C2)C(=O)COC(F)(F)F` [Compound 321, (1S,3aR,6aS)-2-(4-(difluoromethyl)-2-oxabicyclo[2.1.1]hexane-1-carbonyl)-N-((S)-3-oxo-1-((S)-2-oxopyrrolidin-3-yl)-4-(trifluoromethoxy)butan-2-yl)octahydrocyclopenta-[c]pyrrole-1-carboxamide], the EC50 lay in the range of 0.05 to 0.2 µM.

The assay is the same for the next values; noted with them: Severe acute respiratory syndrome coronavirus 2, HeLa-ACE2, 24 h, HeLa-ACE2 cells, SARS-CoV-2 infection, 24 h; given as bound; read-out: EC50, uM (Hela).
`CC1(C)C[C@@H](C(=O)N[C@@H](C[C@@H]2CCNC2=O)C(=O)COC(F)(F)F)N(C(=O)C(=O)NC2(C)CC2)C1` [Compound 540, (S)-4,4-dimethyl-1-(2-((1-methylcyclo-propyl)amino)-2-oxoacetyl)-N-((S)-3-oxo-1-((S)-2-oxopyrrolidin-3-yl)-4-(trifluoromethoxy)butan-2-yl)pyrrolidine-2-carboxamide]: the EC50 was > 1 µM.

On to `Cc1cccnc1NC(=O)C(=O)N1C[C@@H]2CCC[C@@H]2[C@H]1C(=O)N[C@@H](C[C@@H]1CCNC1=O)C(=O)COC(F)(F)F` [Compound 550, (1S,3aR,6aS)-2-(2-((3-methylpyridin-2-yl)amino)-2-oxoacetyl)-N-((S)-3-oxo-1-((S)-2-oxopyrrolidin-3-yl)-4-(trifluoromethoxy)butan-2-yl)octahydrocyclo-penta[c]pyrrole-1-carboxamide], for which the EC50 is > 1 µM.

As for `C[C@@H]1C[C@H]2[C@H](C[C@H](C(=O)N[C@@H](C[C@@H]3CCNC3=O)C(=O)COC(F)(F)F)N2C(=O)C(=O)NC(C)(C)C)O1` [Compound 547, (2R,3aS,5R,6aS)-4-(2-(tert-butylamino)-2-oxoacetyl)-2-methyl-N-((S)-3-oxo-1-((S)-2-oxopyrrolidin-3-yl)-4-(trifluoromethoxy)butan-2-yl)hexahydro-2H-furo[3,2-b]pyrrole-5-carboxamide], the EC50 was > 1 µM.

Still in this assay, the particulars now being: Severe acute respiratory syndrome coronavirus 2, HeLa-ACE2, 24 h, HeLa-ACE2 cells, SARS-CoV-2 infection, 24 h; read-out: EC50, uM (Hela).
For the molecule `O=C(NCC(F)(F)F)C(=O)N1[C@@H]2CC[C@@H](C2)[C@H]1C(=O)N[C@@H](C[C@@H]1CCNC1=O)C(=O)COC(F)(F)F` [Compound 542, (1R,3S,4S)-N-((S)-3-oxo-1-((S)-2-oxopyrrolidin-3-yl)-4-(trifluoromethoxy)butan-2-yl)-2-(2-oxo-2-((2,2,2-trifluoroethyl)-amino)acetyl)-2-azabicyclo[2.2.1]-heptane-3-carboxamide], the EC50 fell in the range of 0.05 to 0.2 µM.

Take `COc1ccc(/C=C/C[C@@H](O)C(=O)N2CC3(CC3)C[C@H]2C(=O)N[C@@H](C[C@@H]2CCNC2=O)C(=O)COC(F)(F)F)cc1` [Compound 666, (S)-5-((R,E)-2-hydroxy-5-(4-methoxyphenyl)pent-4-enoyl)-N-((S)-3-oxo-1-((S)-2-oxopyrrolidin-3-yl)-4-(trifluoromethoxy)butan-2-yl)-5-azaspiro[2.4]heptane-6-carboxamide]: the half-maximal effective concentration (EC50) lay in the range of 0.05 to 0.2 µM.

Consider `CC(C)C(=O)N1CC2(CC2)C[C@H]1C(=O)N[C@@H](C[C@@H]1CCNC1=O)C(=O)COC(F)(F)F` [Compound 704, (S)-5-isobutyryl-N-((S)-3-oxo-1-((S)-2-oxopyrrolidin-3-yl)-4-(trifluoromethoxy)butan-2-yl)-5-azaspiro[2.4]heptane-6-carboxamide], for which the concentration giving a half-maximal response (EC50) was 0.05 to 0.2 µM.

With `CC(C)[C@@H](O)C(=O)N1[C@H](C(=O)N[C@@H](C[C@@H]2CCNC2=O)C(=O)COC(F)(F)F)C[C@@]2(C)C[C@@H]12` [Compound 452, (1R,3S,5R)-2-((R)-2-hydroxy-3-methylbutanoyl)-5-methyl-N-((S)-3-oxo-1-((S)-2-oxopyrrolidin-3-yl)-4-(trifluoromethoxy)butan-2-yl)-2-azabicyclo[3.1.0]hexane-3-carboxamide], the EC50 fell in the range of 0.05 to 0.2 µM.

Consider `CC(C)(C#N)NC(=O)C(=O)N1C[C@@H]2CCC[C@@H]2[C@H]1C(=O)N[C@@H](C[C@@H]1CCNC1=O)C(=O)COC(F)(F)F` [Compound 566, (1S,3aR,6aS)-2-(2-((2-cyanopropan-2-yl)amino)-2-oxoacetyl)-N-((S)-3-oxo-1-((S)-2-oxopyrrolidin-3-yl)-4-(trifluoromethoxy)butan-2-yl)octahydrocyclo-penta[c]pyrrole-1-carboxamide], for which the EC50 is 0.05 to 0.2 µM.

Turning to `O=C(Nc1ccccc1F)C(=O)N[C@@H](Cc1ccc(F)c(F)c1)C(=O)N[C@@H](C[C@@H]1CCNC1=O)C(=O)COC(F)(F)F` [Compound 589, N1-((S)-3-(3,4-difluorophenyl)-1-oxo-1-(((S)-3-oxo-1-((S)-2-oxopyrrolidin-3-yl)-4-(trifluoromethoxy)butan-2-yl)amino)propan-2-yl)-N2-(2-fluorophenyl)oxalamide], the half-maximal effective concentration (EC50) lay in the range of 0.05 to 0.2 µM.
